Counter-ions that a name gives are not always drawn. Like-named read-outs stand apart in the source and are kept apart here.
What was measured:
InhA = InhA (Mycobacterium tuberculosis, UniProt P9WGR1); test: InhA inhibition assay (NADH consumption, absorbance at 340); type: biochemical; conditions: for inhibition at 40 µM: 40 μM compound, read-out: Percentage Inhibition (@ 40 μM)
[1] = system: Bacillus Calmet-Guerin (BCG), Pasteur strain, of Mycobacterium bovis; test: microbe, parasite or virus in culture; type: cell-based; conditions: Mycobacterium tuberculosis variant bovis BCG
h. Lung = test: Cell Tox (h. Lung); conditions: h. Lung cells
m. Embryo = test: Cell Tox (m. Embryo); conditions: m. Embryo cells
h. Kidney = test: Cell Tox (h. Kidney); conditions: h. Kidney cells
[2] = read-out: IC50's for BCG growth

Chain of InhA (P9WGR1 whole entry, looked up): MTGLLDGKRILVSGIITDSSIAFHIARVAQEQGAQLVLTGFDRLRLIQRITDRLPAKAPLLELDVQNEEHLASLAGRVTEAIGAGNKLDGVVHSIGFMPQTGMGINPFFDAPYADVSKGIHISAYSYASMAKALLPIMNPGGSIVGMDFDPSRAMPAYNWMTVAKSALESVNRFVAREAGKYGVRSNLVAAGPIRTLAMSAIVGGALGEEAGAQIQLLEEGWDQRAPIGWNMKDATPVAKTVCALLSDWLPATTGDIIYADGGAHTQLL

With `O=C(Cc1ccccc1F)NCCc1ccc(Cl)cc1` [Compound 1, N-[2-(4-Chlorophenyl)-ethyl]-2-(2-fluoro-phenyl)acetamide] the inhibition at 40 µM (InhA; Table 2) was 82%.
For `CCCC(=O)C1(c2ccccc2)CCN(C(=O)c2ccc3[nH]ccc3c2)CC1` [Compound 4, 1-[1-(1H-Indole-5-carbonyl)-4-phenyl-piperidin-4-yl]-butan-1-one], the IC50 (InhA) was 230 nM, the IC50 ([1]; read-out: BCG Growth IC-50) was greater than 25000 nM and the “Cell Tox (h. Lung)” value (h. Lung) was 33 to 50 µM. The “Cell Tox (m. Embryo)” value (m. Embryo) was 46 to 50 µM and the “Cell Tox (h. Kidney)” value (h. Kidney) was 23 to 48 µM.
Molecule `O=C(c1ccc(Cl)cc1)C1CCN(C(=O)c2ccc3[nH]ccc3c2)CC1` [Compound 5, [4-(4-Chlorobenzoyl)-piperidin-1-yl]-(1H-indol-5-yl)-methanone] has an inhibition at 40 µM (InhA; Table 6) of 97%.
`O=C(c1ccc2[nH]ccc2c1)N1CCN(c2ccc(Cl)cc2)CC1` [Compound 56] gave an IC50 (InhA) of 4200 nM.
Work on `Cc1ccc(Cl)cc1N1CCN(C(=O)c2ccc3[nH]ccc3c2)CC1` [Compound 57] yielded an IC50 (InhA) of 1040 nM.
Molecule `O=C(c1ccc2[nH]ccc2c1)N1CCN(c2cccc(Cl)c2)CC1` [Compound 58] has an IC50 (InhA) of 1210 nM.
In the case of `O=C(c1ccc2[nH]ccc2c1)N1CCN(c2cccc(C(F)(F)F)c2)CC1` [Compound 59], the IC50 (InhA) is reported as 1890 nM.
For `O=C(c1ccc2[nH]ccc2c1)N1CCN(C2c3ccccc3-c3ccccc32)CC1` [Compound 70], the IC50 ([1]; read-out: BCG Growth IC-50) was 8300 nM, the “Cell Tox (h. Lung)” value (h. Lung) was 24 to 48 µM and the “Cell Tox (m. Embryo)” value (m. Embryo) was 46 to 52 µM. The “Cell Tox (h. Kidney)” value (h. Kidney) was 35 to 44 µM.
For `O=C(c1ccc2[nH]ccc2c1)N1CCN(C2c3ccccc3-c3ccc([N+](=O)[O-])cc32)CC1` (stereo not shown) [Compound 71], the IC50 (InhA; Table 9, read-out: InhA IC-50) was 120 nM, the IC50 ([1]; read-out: BCG Growth IC-50) was 8300 nM and the “Cell Tox (h. Lung)” value (h. Lung) was 37 µM. For the same molecule, the “Cell Tox (m. Embryo)” value (m. Embryo) was 23 µM and the “Cell Tox (h. Kidney)” value (h. Kidney) was 28 µM.
In the case of `O=C(c1ccc2[nH]ccc2c1)N1CCN(C2c3ccccc3-c3cc([N+](=O)[O-])ccc32)CC1` (stereo not shown) [Compound 72], the IC50 (InhA; Table 9, read-out: InhA IC-50) is reported as 130 nM, the IC50 ([1]; read-out: BCG Growth IC-50) is reported as 2800 nM and the “Cell Tox (h. Lung)” value (h. Lung) is reported as 34 µM. The “Cell Tox (m. Embryo)” value (m. Embryo) was 23 µM and the “Cell Tox (h. Kidney)” value (h. Kidney) was 29 µM.
`O=C(c1ccc2[nH]ccc2c1)N1CCN(C2c3cc(Br)ccc3-c3ccc(Br)cc32)CC1` [Compound 73] was tested, and the IC50 (InhA; Table 9, read-out: InhA IC-50) was 120 nM and the IC50 ([1]; read-out: BCG Growth IC-50) was 6200 nM.
`CC[C@@H](CO)NCCN[C@@H](CC)CO` [ethambutol, ethambutol dihydrochloride] gave an IC50 ([1]; read-out: BCG Growth IC-50) of 10000 nM and an IC50 [1, 2] of 10000 nM.
`NNC(=O)c1ccncc1` [isoniazid, isonicotinic acid hydrazide] gave an IC50 ([1]; read-out: BCG Growth IC-50) of 3000 nM and an IC50 [1, 2] of 3000 nM.
Molecule `CCCCCCCCCCCCCCCC(=O)SCCNC(=O)CCNC(=O)[C@H](O)C(C)(C)COP(=O)(O)OP(=O)(O)OC[C@H]1O[C@@H](n2cnc3c(N)ncnc32)[C@H](O)[C@@H]1OP(=O)(O)O` [palmitoyl-CoA, reference compound] has an inhibition at 375 µM (InhA; at 375 uM, read-out: inhibition by internal standard) of roughly 40%.
`CO[C@H]1/C=C/O[C@@]2(C)Oc3c(C)c(O)c4c(O)c(c(/C=N/N5CCN(C)CC5)c(O)c4c3C2=O)NC(=O)/C(C)=C\C=C\[C@H](C)[C@H](O)[C@@H](C)[C@@H](O)[C@@H](C)[C@H](OC(C)=O)[C@@H]1C` [rifampicin] gave an IC50 ([1]; read-out: BCG Growth IC-50) of 10 nM and an IC50 [1, 2] of 10 nM.
